Results reported in patent US12344631B2, “C17 polar-substituted heteroaromatic synthetic triterpenoids and methods of use thereof” (REATA PHARMACEUTICALS, INC., priority 2019, dated 2025).

Tests used:
RAW 264.7 cells = experiment: Nitric oxide suppression assay (IFNγ-induced NO production); type: cell-based, mouse; conditions: for IC50: Mus musculus, RAW264.7, RAW 264.7 cells, 2 h pretreatment, 20 ng/mL interferon gamma 24 h, nitrite by Griess, read-out: NO IC50 (nM) (Mean ± SD); for NO IC50 Relative to RTA 402 (fold) (Mean ± SD): average of ratios from replicate experiments, benchmark RTA 402
Summary of the method: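 Mouse RAW 264.7 macrophages in RPMI 1640 with 0.5% FBS were pretreated with compounds for 2 h at 37° C (0.1% DMSO final), then stimulated with 20 ng/mL IFNγ for 24 h. Nitrite in the supernatant was read at 525 nm against standards and normalized to DMSO/IFNγ wells. IC50 values were fitted with dependence on WST-1 viability.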

[1] = test system: AML-12 hepatocyte cell line; experiment: Glutathione assay (total glutathione, GSH-Glo); type: cell-based, mouse; conditions: for EC50: Mus musculus, AML12, AML-12 cells, 24 hours, total glutathione, read-out: GSH EC50 (nM) (Mean ± SD); for GSH EC50 Relative to RTA 402 (fold) (Mean ± SD): benchmark RTA 402
Summary of the method: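 Mouse AML-12 hepatocytes were treated with compound (0.03 nM to 1000 nM, 0.1% DMSO) for 24 hours at 37° C., and total glutathione was measured by GSH-Glo luminescence against a glutathione standard curve. EC50 values came from nonlinear regression, with basal glutathione set to 0% and the maximal compound-induced level set to 100%.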

[2] = test system: AREc32 reporter cell line (antioxidant response element of rat Gsta2, Nrf2 target gene); experiment: AREc32 luciferase reporter activation; type: cell-based, human; conditions: for AREc32 EC2X Relative to RTA 402 (fold) (Mean ± SD): average of ratios from replicate experiments, benchmark RTA 402; for AREc32 Relative to CC in Same Experiment (Mean ± SD): average of ratios from experiments with direct comparisons; for EC (2-fold): human, Arec32, 19 h, concentration increasing luminescence signal 2-fold above vehicle, nineteen hours, read-out: AREc32 EC2X (nM) (Mean ± SD)
Summary of the method: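 MCF-7-derived cells carry luciferase driven by eight copies of the rat Gsta2 ARE. EC2X was extrapolated from a nonlinear fit of fold increase over vehicle.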

CYP3A4 = CYP3A4 (Homo sapiens, UniProt P08684); experiment: CYP3A4 (midazolam) inhibition in human liver microsomes; conditions: for inhibition at 10 min, 1 μM: human, human liver microsomes, probe midazolam (5 μM); for CYP3A4 inhibition compared with historical data for RTA 402 and RTA 408: comparable conditions (FIG. 1); for CYP3A4 inhibition lower than the corresponding unsubstituted compound: vs CC2, CC1 or CC3, 1 μM
Sequence of CYP3A4 (P08684 whole entry): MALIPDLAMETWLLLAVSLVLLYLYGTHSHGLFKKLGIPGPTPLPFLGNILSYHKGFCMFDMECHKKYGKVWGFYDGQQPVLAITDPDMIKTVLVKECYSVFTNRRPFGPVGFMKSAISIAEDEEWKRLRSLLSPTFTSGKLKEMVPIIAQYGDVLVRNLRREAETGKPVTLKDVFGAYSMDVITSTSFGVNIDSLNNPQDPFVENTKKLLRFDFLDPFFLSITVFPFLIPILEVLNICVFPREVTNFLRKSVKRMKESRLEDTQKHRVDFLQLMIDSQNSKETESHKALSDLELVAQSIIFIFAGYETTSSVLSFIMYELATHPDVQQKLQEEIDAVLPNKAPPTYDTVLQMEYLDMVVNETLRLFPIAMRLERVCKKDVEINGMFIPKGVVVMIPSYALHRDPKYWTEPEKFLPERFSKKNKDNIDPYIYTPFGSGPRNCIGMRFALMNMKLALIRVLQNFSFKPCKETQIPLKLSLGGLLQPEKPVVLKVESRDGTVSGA

## Cc1noc([C@]23CCC(C)(C)C[C@H]2[C@H]2C(=O)C=C4[C@@]5(C)C=C(C#N)C(=O)C(C)(C)[C@@H]5CC[C@@]4(C)[C@]2(C)CC3)n1 [CC2, reference compound]
RAW 264.7 cells
  IC50: 1.98 nM
  NO IC50 Relative to RTA 402 (fold) (Mean ± SD): 0.70 ± 0.18 fold
[1]
  EC50: 2 ± 1.24 nM
  GSH EC50 Relative to RTA 402 (fold) (Mean ± SD): 0.80 ± 0.16 fold
[2]
  AREc32 EC2X Relative to RTA 402 (fold) (Mean ± SD): 0.74 ± 0.16 fold
  EC (2-fold): 8.59 ± 1.88 nM
[2]; comparison compound CC2
  AREc32 Relative to CC in Same Experiment (Mean ± SD): 1.00
CYP3A4
  inhibition at 10 min, 1 μM: 45.8%

## C[C@@H]1C(=O)C(C#N)=C[C@]2(C)C3=CC(=O)[C@@H]4[C@@H]5CC(C)(C)CC[C@]5(c5nc(CF)no5)CC[C@@]4(C)[C@]3(C)CC[C@@H]12 [Compound T34]
RAW 264.7 cells
  IC50: 0.93 nM
  NO IC50 Relative to RTA 402 (fold) (Mean ± SD): 0.28 ± 0.06 fold
[1]
  EC50: 0.35 ± 0.06 nM
  GSH EC50 Relative to RTA 402 (fold) (Mean ± SD): 0.18 ± 0.02 fold
[2]
  AREc32 EC2X Relative to RTA 402 (fold) (Mean ± SD): 0.36 ± 0.05 fold
  EC (2-fold): 4.5 ± 0.66 nM
[2]; comparison compound CC3
  AREc32 Relative to CC in Same Experiment (Mean ± SD): 0.76 ± 0.14
CYP3A4
  CYP3A4 inhibition compared with historical data for RTA 402 and RTA 408: reduced CYP3A4 inhibition
  inhibition at 10 min, 1 μM: 29.4%
  CYP3A4 inhibition lower than the corresponding unsubstituted compound: 22%

## CC1(C)CC[C@]2(c3nc(CF)no3)CC[C@]3(C)[C@H](C(=O)C=C4[C@@]5(C)C=C(C#N)C(=O)C(C)(C)[C@@H]5CC[C@]43C)[C@@H]2C1 [Compound T12]
RAW 264.7 cells
  IC50: 1.27 nM
  NO IC50 Relative to RTA 402 (fold) (Mean ± SD): 0.52 ± 0.12 fold
[1]
  EC50: 0.82 ± 0.4 nM
  GSH EC50 Relative to RTA 402 (fold) (Mean ± SD): 0.50 ± 0.19 fold
[2]
  AREc32 EC2X Relative to RTA 402 (fold) (Mean ± SD): 0.53 ± 0.12 fold
  EC (2-fold): 6.87 ± 1.57 nM
[2]; comparison compound CC2
  AREc32 Relative to CC in Same Experiment (Mean ± SD): 0.75 ± 0.05
CYP3A4
  CYP3A4 inhibition compared with historical data for RTA 402 and RTA 408: reduced CYP3A4 inhibition
  inhibition at 10 min, 1 μM: 29.7%
  CYP3A4 inhibition lower than the corresponding unsubstituted compound: 35%

## CC1(C)CC[C@]2(c3noc(CF)n3)CC[C@]3(C)[C@H](C(=O)C=C4[C@@]5(C)C=C(C#N)C(=O)C(C)(C)[C@@H]5CC[C@]43C)[C@@H]2C1 [Compound T1]
RAW 264.7 cells
  IC50: 1.24 nM
  NO IC50 Relative to RTA 402 (fold) (Mean ± SD): 0.52 ± 0.12 fold
[1]
  EC50: 0.57 ± 0.22 nM
  GSH EC50 Relative to RTA 402 (fold) (Mean ± SD): 0.35 ± 0.12 fold
[2]
  AREc32 EC2X Relative to RTA 402 (fold) (Mean ± SD): 0.46 ± 0.13 fold
  EC (2-fold): 6.2 ± 1.37 nM
[2]; comparison compound CC2
  AREc32 Relative to CC in Same Experiment (Mean ± SD): 0.62 ± 0.07
CYP3A4
  CYP3A4 inhibition compared with historical data for RTA 402 and RTA 408: reduced CYP3A4 inhibition
  inhibition at 10 min, 1 μM: 29.1%
  CYP3A4 inhibition lower than the corresponding unsubstituted compound: 36%

## Cc1noc([C@]23CCC(C)(C)C[C@H]2[C@H]2C(=O)C=C4[C@@]5(C)C=C(C#N)C(=O)[C@@H](C)[C@@H]5CC[C@@]4(C)[C@]2(C)CC3)n1 [CC3, reference compound]
RAW 264.7 cells
  IC50: 1.34 nM
  NO IC50 Relative to RTA 402 (fold) (Mean ± SD): 0.40 ± 0.06 fold
[1]
  EC50: 1.16 ± 0.53 nM
  GSH EC50 Relative to RTA 402 (fold) (Mean ± SD): 0.43 ± 0.14 fold
[2]
  AREc32 EC2X Relative to RTA 402 (fold) (Mean ± SD): 0.66 ± 0.21 fold
  EC (2-fold): 7.11 ± 1.15 nM
[2]; comparison compound CC3
  AREc32 Relative to CC in Same Experiment (Mean ± SD): 1.00
CYP3A4
  inhibition at 10 min, 1 μM: 37.7%

## Cc1nnc([C@]23CCC(C)(C)C[C@H]2[C@H]2C(=O)C=C4[C@@]5(C)C=C(C#N)C(=O)C(C)(C)[C@@H]5CC[C@@]4(C)[C@]2(C)CC3)o1 [CC1, reference compound]
RAW 264.7 cells
  IC50: 2.05 nM
  NO IC50 Relative to RTA 402 (fold) (Mean ± SD): 0.78 ± 0.10 fold
[1]
  EC50: 1.09 ± 0.13 nM
  GSH EC50 Relative to RTA 402 (fold) (Mean ± SD): 0.70 ± 0.12 fold
[2]
  AREc32 EC2X Relative to RTA 402 (fold) (Mean ± SD): 0.79 ± 0.24 fold
  EC (2-fold): 10.6 ± 2.73 nM
[2]; comparison compound CC1
  AREc32 Relative to CC in Same Experiment (Mean ± SD): 1.00
CYP3A4
  inhibition at 10 min, 1 μM: 20.7%
